We go through 27 compounds from US20240239752A1, “BICYCLIC HETEROAROMATIC INHIBITORS OF KLK5” (BioCryst Pharmaceuticals, Inc., priority 2021, published 2024).

The structures appear in SMILES notation.

The target in the experiment is T1, recombinant human KLK5 (Homo sapiens, UniProt Q9Y337).
T1 construct: purchased Novoprotein or R&D Systems C415 or 1108-SE
T1 sequence (Q9Y337 23-293): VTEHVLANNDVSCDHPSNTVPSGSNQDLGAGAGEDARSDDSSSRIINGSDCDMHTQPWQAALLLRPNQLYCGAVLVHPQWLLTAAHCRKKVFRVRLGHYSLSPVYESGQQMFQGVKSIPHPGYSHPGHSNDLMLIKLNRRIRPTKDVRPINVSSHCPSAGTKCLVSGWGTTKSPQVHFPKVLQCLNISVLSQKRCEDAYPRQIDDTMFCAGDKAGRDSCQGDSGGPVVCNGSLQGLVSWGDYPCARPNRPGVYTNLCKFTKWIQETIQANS
Nature of the experiment: Kallikrein (KLK) 5 enzymatic assay (Boc-VPR-AMC fluorogenic substrate). Format: biochemical. The settings on record: recombinant human KLK5 0.1 μg/well, Boc-VPR-AMC 100 μM, pH 7.5, room temperature, 1% DMSO; tested a minimum of three times. The method, boiled down: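 Fluorogenic rate assay at pH 7.5 (0.1 M NaH2PO4, 1% DMSO, room temperature), run at least three times per compound. Compound was premixed with 0.1 μg/well recombinant human KLK5 before adding 100 μM Boc-VPR-AMC; AMC release was read at ex 380/em 460 nm, and IC50 derived from inhibition of rate vs DMSO control.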
Consider `CC(C)(C)OC(=O)N1CCC2(CC1)C[C@@H](Oc1ccccc1CC(=O)O)c1cc(-c3ccc4ccnc(N)c4c3)ccc12` [Compound 395b, (R)-2-(2-((5-(1-aminoisoquinolin-7-yl)-1′-(tert-butoxycarbonyl)-2,3-dihydrospiro[indene-1,4′-piperidin]-3-yl)oxy)phenyl)acetic acid], for which the 50% inhibitory concentration (IC50) (commonly the concentration needed to halve the response being measured) was less than 1000 nM.

For the compound `COC(=O)N1CCC2(CC1)C[C@H](Oc1ccccc1CC(=O)O)c1cc(-c3cccc4c(N)nccc34)ccc12` [Compound 396d, (S)-2-(2-((5-(1-aminoisoquinolin-5-yl)-1′-(methoxycarbonyl)-2,3-dihydrospiro[indene-1,4′-piperidin]-3-yl)oxy)phenyl)acetic acid], the half-inhibitory concentration (IC50) was less than 1000 nM.

`COC(=O)N1CCC2(CC1)C[C@H](Oc1ccccc1CC(=O)O)c1cc(-c3ccc4ccnc(N)c4c3)ccc12` [Compound 397b, (S)-2-(2-((5-(1-aminoisoquinolin-7-yl)-1′-(methoxycarbonyl)-2,3-dihydrospiro[indene-1,4′-piperidin]-3-yl)oxy)phenyl)acetic acid]: the IC50 was less than 1000 nM.

Regarding `COC(=O)N1CCC2(CC1)C[C@@H](Oc1ccccc1CC(=O)O)c1cc(-c3cccc4c(N)nccc34)ccc12` [Compound 398d, (R)-2-(2-((5-(1-aminoisoquinolin-5-yl)-1′-(methoxycarbonyl)-2,3-dihydrospiro[indene-1,4′-piperidin]-3-yl)oxy)phenyl)acetic acid], the IC50 was less than 1000 nM.

Turning to `COC(=O)N1CCC2(CC1)C[C@@H](Oc1ccccc1CC(=O)O)c1cc(-c3ccc4ccnc(N)c4c3)ccc12` [Compound 399b, (R)-2-(2-((5-(1-aminoisoquinolin-7-yl)-1′-(methoxycarbonyl)-2,3-dihydrospiro[indene-1,4′-piperidin]-3-yl)oxy)phenyl)acetic acid], the IC50 was less than 1000 nM.

With `Nc1nccc2c(-c3ccc4c(c3)C(COc3ccccc3CC(=O)O)=CC43CCCC3)cccc12` [Compound 400f, 2-(2-((5′-(1-aminoisoquinolin-5-yl)spiro[cyclopentane-1,1′-inden]-3′-yl)methoxy)phenyl)acetic acid], the IC50 is less than 1000 nM.

Turning to `Nc1nccc2ccc(-c3ccc4c(c3)C(COc3ccccc3CC(=O)O)=CC43CCCC3)cc12` [Compound 401b, 2-(2-((5′-(1-aminoisoquinolin-7-yl)spiro[cyclopentane-1,1′-inden]-3′-yl)methoxy)phenyl)acetic acid], the half-inhibitory concentration (IC50) is less than 1000 nM.

For `Nc1nccc2ccc(-c3ccc4c(c3)C(COc3ccccc3CC(=O)O)CC43CCCC3)cc12` (stereo not drawn) [Compound 402a, 2-(2-((5′-(1-aminoisoquinolin-7-yl)-2′,3′-dihydrospiro[cyclopentane-1,1′-inden]-3′-yl)methoxy)phenyl)acetic acid], the IC50 lay within 1000 to 10000 nM.

For `Nc1nccc2c(-c3ccc4c(c3)C(COc3ccccc3CC(=O)O)CC43CCCC3)cccc12` (stereo not drawn) [Compound 403a, 2-(2-((5′-(1-aminoisoquinolin-5-yl)-2′,3′-dihydrospiro[cyclopentane-1,1′-inden]-3′-yl)methoxy)phenyl)acetic acid], the IC50 is less than 1000 nM.

For `CCOC(=O)N1CCC2(CC1)CC(Oc1cccc(C)c1CC(=O)O)c1cc(-c3ccc4ccnc(N)c4c3)ccc12` (stereo not drawn) [Compound 404c, 2-(2-((5-(1-aminoisoquinolin-7-yl)-1′-(ethoxycarbonyl)-2,3-dihydrospiro[indene-1,4′-piperidin]-3-yl)oxy)-6-methylphenyl)acetic acid], the IC50 is less than 1000 nM.

Consider `CCOC(=O)N1CCC2(CC1)CC(Oc1cccc(C)c1CC(=O)O)c1cc(-c3cccc4c(N)nccc34)ccc12` (stereo not drawn) [Compound 405b, 2-(2-((5-(1-aminoisoquinolin-5-yl)-1′-(ethoxycarbonyl)-2,3-dihydrospiro[indene-1,4′-piperidin]-3-yl)oxy)-6-methylphenyl)acetic acid], for which the IC50 is less than 1000 nM.

For `CC(=O)N1CCC2(CC1)CC(Oc1cccc(C)c1CC(=O)O)c1cc(-c3ccc4ccnc(N)c4c3)ccc12` (stereo not drawn) [Compound 406c, 2-(2-((1′-acetyl-5-(1-aminoisoquinolin-7-yl)-2,3-dihydrospiro[indene-1,4′-piperidin]-3-yl)oxy)-6-methylphenyl)acetic acid], the IC50 was less than 1000 nM.

With `CC(=O)N1CCC2(CC1)CC(Oc1cccc(C)c1CC(=O)O)c1cc(-c3cccc4c(N)nccc34)ccc12` (stereo not drawn) [Compound 407b, 2-(2-((1′-acetyl-5-(1-aminoisoquinolin-5-yl)-2,3-dihydrospiro[indene-1,4′-piperidin]-3-yl)oxy)-6-methylphenyl)acetic acid], the IC50 was less than 1000 nM.

`COC(=O)N1CCC2(CC1)CC(Oc1cc(F)ccc1CC(=O)O)c1cc(-c3ccc4ccnc(N)c4c3)ccc12` (stereo not drawn) [Compound 408f, 2-(2-((5-(1-aminoisoquinolin-7-yl)-1′-(methoxycarbonyl)-2,3-dihydrospiro[indene-1,4′-piperidin]-3-yl)oxy)-4-fluorophenyl)acetic acid]: the IC50 was less than 1000 nM.

`COC(=O)N1CCC2(CC1)CC(Oc1cc(F)ccc1CC(=O)O)c1cc(-c3cccc4c(N)nccc34)ccc12` (stereo not drawn) [Compound 409b, 2-(2-((5-(1-aminoisoquinolin-5-yl)-1′-(methoxycarbonyl)-2,3-dihydrospiro[indene-1,4′-piperidin]-3-yl)oxy)-4-fluorophenyl)acetic acid]: the IC50 was less than 1000 nM.

Take `COC(=O)N1CCC2(CC1)CC(Oc1cc(C#N)ccc1CC(=O)O)c1cc(-c3ccc4ccnc(N)c4c3)ccc12` (stereo not drawn) [Compound 410d, 2-(2-((5-(1-aminoisoquinolin-7-yl)-1′-(methoxycarbonyl)-2,3-dihydrospiro[indene-1,4′-piperidin]-3-yl)oxy)-4-cyanophenyl)acetic acid]: the half-inhibitory concentration (IC50) is less than 1000 nM.

Consider `COC(=O)N1CCC2(CC1)CC(Oc1cc(C#N)ccc1CC(=O)O)c1cc(-c3cccc4c(N)nccc34)ccc12` (stereo not drawn) [Compound 411b, 2-(2-((5-(1-aminoisoquinolin-5-yl)-1′-(methoxycarbonyl)-2,3-dihydrospiro[indene-1,4′-piperidin]-3-yl)oxy)-4-cyanophenyl)acetic acid], for which the concentration for half-maximal inhibition (IC50) was less than 1000 nM.

For the compound `COC(=O)N1CCC2(CC1)CC(Oc1cc(C)ccc1CC(=O)O)c1cc(-c3ccc4ccnc(N)c4c3)ccc12` (stereo not drawn) [Compound 412c, 2-(2-((5-(1-aminoisoquinolin-7-yl)-1′-(methoxycarbonyl)-2,3-dihydrospiro[indene-1,4′-piperidin]-3-yl)oxy)-4-methylphenyl)acetic acid], the IC50 was less than 1000 nM.

On to `COC(=O)N1CCC2(CC1)CC(Oc1cc(C)ccc1CC(=O)O)c1cc(-c3cccc4c(N)nccc34)ccc12` (stereo not drawn) [Compound 413b, 2-(2-((5-(1-aminoisoquinolin-5-yl)-1′-(methoxycarbonyl)-2,3-dihydrospiro[indene-1,4′-piperidin]-3-yl)oxy)-4-methylphenyl)acetic acid], for which the half-inhibitory concentration (IC50) is less than 1000 nM.

With `Nc1nccc2ccc(-c3ccc4c(c3)[C@H](Oc3ccccc3CC(=O)O)CC43CCN(CC(=O)O)CC3)cc12` [Compound 414c, (R)-2-(2-((5-(1-aminoisoquinolin-7-yl)-1′-(carboxymethyl)-2,3-dihydrospiro[indene-1,4′-piperidin]-3-yl)oxy)phenyl)acetic acid], the 50% inhibitory concentration (IC50) was less than 1000 nM.

`Nc1nccc2c(-c3ccc4c(c3)[C@H](Oc3ccccc3CC(=O)O)CC43CCN(CC(=O)O)CC3)cccc12` [Compound 415b, (R)-2-(2-((5-(1-aminoisoquinolin-5-yl)-1′-(carboxymethyl)-2,3-dihydrospiro[indene-1,4′-piperidin]-3-yl)oxy)phenyl)acetic acid]: the half-maximal inhibitory concentration (IC50) was less than 1000 nM.

As to `CCCN1CCC2(CC1)C[C@@H](Oc1ccccc1CC(=O)O)c1cc(-c3ccc4ccnc(N)c4c3)ccc12` [Compound 416c, (R)-2-(2-((5-(1-aminoisoquinolin-7-yl)-1′-propyl-2,3-dihydrospiro[indene-1,4′-piperidin]-3-yl)oxy)phenyl)acetic acid], the IC50 is less than 1000 nM.

Take `CCCN1CCC2(CC1)C[C@@H](Oc1ccccc1CC(=O)O)c1cc(-c3cccc4c(N)nccc34)ccc12` [Compound 417b, (R)-2-(2-((5-(1-aminoisoquinolin-5-yl)-1′-propyl-2,3-dihydrospiro[indene-1,4′-piperidin]-3-yl)oxy)phenyl)acetic acid]: the IC50 is less than 1000 nM.

In the case of `CCN1CCC2(CC1)C[C@@H](Oc1ccccc1CC(=O)O)c1cc(-c3cccc4c(N)nccc34)ccc12` [Compound 418c, (R)-2-(2-((5-(1-aminoisoquinolin-5-yl)-1′-ethyl-2,3-dihydrospiro[indene-1,4′-piperidin]-3-yl)oxy)phenyl)acetic acid], the IC50 was less than 1000 nM.

`COc1ccc(CC(=O)O)c(O[C@@H]2CCc3ccc(-c4ccc5ccnc(N)c5c4)cc32)c1` [Compound 419c, (R)-2-(2-((6-(1-aminoisoquinolin-7-yl)-2,3-dihydro-1H-inden-1-yl)oxy)-4-methoxyphenyl)acetic acid]: the IC50 was less than 1000 nM.

In the case of `COc1ccc(CC(=O)O)c(O[C@@H]2CCc3ccc(-c4cccc5c(N)nccc45)cc32)c1` [Compound 420b, (R)-2-(2-((6-(1-aminoisoquinolin-5-yl)-2,3-dihydro-1H-inden-1-yl)oxy)-4-methoxyphenyl)acetic acid], the half-inhibitory concentration (IC50) is less than 1000 nM.

Take `Nc1nccc2ccc(-c3ccc4c(c3)[C@H](Oc3cc(F)ccc3CC(=O)O)CC4)cc12` [Compound 421c, (R)-2-(2-((6-(1-aminoisoquinolin-7-yl)-2,3-dihydro-1H-inden-1-yl)oxy)-4-fluorophenyl)acetic acid]: the IC50 is less than 1000 nM.
